Experimental data published in US8796460B2, “Compounds for inhibiting KSP kinesin activity” (Mercky Sharp & Dohme Corp., priority 2007, dated 2014).

test system: HCT116 colon cancer cells; test: KSP Cellular Assay (percent of cells staining positive for Phos-Histone H3 / Phos-MPM2); assay type: cell-based; settings: Homo sapiens, HCT-116, 16 h, Table 401; HCT116 cells, 16 hours with drug; read-out: ED50 (nM) Range
Experimental: HCT116 colon cancer cells were grown in DMEM:F12 media with 10% heat inactivated FBS at 37 degrees with 5% CO2. Cells were plated at 7,500 cells per well in PDL coated 384-well tissue culture plates. 6 hours later media was removed and new media containing drug was added. Cells were incubated with drug for 16 hours. All further steps were performed at room temperature in the dark. Cells were fixed with 25 ul/well Prefer fixation solution plus 250 nM Hoechst dye and incubated for 30 minutes. The fixation solution was removed and cells were washed with PBS. Cells were then permeabilized with 25 ul/well 0.2% Triton-X in PBS and incubated for 10 minutes. Cells were washed with PBS and then incubated with 25 ul/well PBS containing 3% FBS for 30 minutes. Cells were then stained overnight at 4 degrees with 25 ul/well antibody solution in PBS plus 3% FBS. Antibodies used were Phos-Histone H3 (ser10)-Alexa Flur 488 Conjugate and Phos-MPM2 Texas Red Conjugate. Cells were washed with PBS and then immunofluorescence images captured with HT Pathway microscope. The percent of cells staining positive was calculated and EC50 values for the compounds of the invention that were tested were determined using Excel XLfit.
EC50 Determinations: Dose-response curves were plotted from inhibition data generated each in duplicate, from 8 point serial dilutions of inhibitory compounds. Concentration of compound was plotted against enzyme activity (OD reading). To generate EC50 values, the dose-response curves were then fitted to a standard sigmoidal curve and EC50 values were derived by nonlinear regression analysis.

| EC50 | SMILES |
| --- | --- |
| > 1000 nM | N[C@H](C(=O)N1N=C(c2cc(F)ccc2F)SC12CCCc1ccsc12)C1CC1 (stereo partly drawn) [compound 428] |
| > 1000 nM | CC(C)(C)C(=O)N1N=C(c2cc(F)ccc2F)SC12CCOc1ccccc12 (stereo not drawn) [compound 430] |
| > 1000 nM | O=C(c1cccnc1)N1N=C(c2cc(F)ccc2F)SC12CCOc1ccccc12 (stereo not drawn) [compound 431] |
| ≤ 500 nM | C[C@H](O)C(=O)N1N=C(c2cc(F)ccc2F)SC12CCc1ccccc12 (stereo partly drawn) [compound 436] |
| ≤ 500 nM | NCCCC(=O)N1N=C(c2cc(F)ccc2F)SC12CCc1ccccc12 (stereo not drawn) [compound 437] |
| ≤ 500 nM | CN(C)CCCC(=O)N1N=C(c2cc(F)ccc2F)SC12CCc1ccccc12 (stereo not drawn) [compound 438] |
| ≤ 500 nM | NCCCCC(=O)N1N=C(c2cc(F)ccc2F)SC12CCc1ccccc12 (stereo not drawn) [compound 443] |
| ≤ 500 nM | O=C(CC1CCNCC1)N1N=C(c2cc(F)ccc2F)SC12CCc1ccccc12 (stereo not drawn) [compound 447] |
| 500 to 1000 nM | O=C(Cc1cccnc1)N1N=C(c2cc(F)ccc2F)SC12CCc1ccccc12 (stereo not drawn) [compound 450] |
| ≤ 500 nM | O=C(CC1CCNC1)N1N=C(c2cc(F)ccc2F)SC12CCc1ccccc12 (stereo not drawn) [compound 451] |
| ≤ 500 nM | CC(N)CCC(=O)N1N=C(c2cc(F)ccc2F)SC12CCc1ccccc12 (stereo not drawn) [compound 452] |
| > 500 nM | CNCCCC(=O)N1N=C(c2cc(F)ccc2F)SC12CCc1ccccc12 (stereo not drawn) [compound 453] |
| > 500 nM | NCCCC(=O)N1N=C(c2cc(F)ccc2F)S[C@@]12CCOc1ccccc12 [compound 459] |
| > 500 nM | O=C(CCC1CCCCN1)N1N=C(c2cc(F)ccc2F)SC12CCc1ccccc12 (stereo not drawn) [compound 461] |
| 500 to 1000 nM | O=C(C1CC1)N1N=C(c2cc(F)ccc2F)SC12CCOc1ccccc12 (stereo not drawn) [compound 464] |
| > 1000 nM | CC(C)CC(=O)N1N=C(c2cc(F)ccc2F)SC12CCOc1ccccc12 (stereo not drawn) [compound 468] |

| EC50 | SMILES |
| --- | --- |
| > 1000 nM | NCC(=O)N1N=C(c2cc(F)ccc2F)SC12CCOc1ccccc12 (stereo not drawn) [compound 469] |
| > 1000 nM | O=C(N1N=C(c2cc(F)ccc2F)SC12CCOc1ccccc12)C(F)(F)F (stereo not drawn) [compound 470] |
| 500 to 1000 nM | O=C(CO)N1N=C(c2cc(F)ccc2F)SC12CCOc1ccccc12 (stereo not drawn) [compound 473] |
| ≤ 500 nM | CN(C)CCCC(=O)N1N=C(c2cc(F)ccc2F)SC12CCOc1ccccc12 (stereo not drawn) [compound 475] |
| > 500 nM | N[C@H]1CC[C@@H](C(=O)N2N=C(c3cc(F)ccc3F)SC23CCOc2ccccc23)CC1 (stereo partly drawn) [compound 481] |
| 500 to 1000 nM | O=C(CC1CCCNC1)N1N=C(c2cc(F)ccc2F)SC12CCOc1ccccc12 (stereo not drawn) [compound 483] |
| 500 to 1000 nM | O=C(Cc1cccnc1)N1N=C(c2cc(F)ccc2F)SC12CCOc1ccccc12 (stereo not drawn) [compound 484] |
| 500 to 1000 nM | O=C(CC1CCNCC1)N1N=C(c2cc(F)ccc2F)SC12CCOc1ccccc12 (stereo not drawn) [compound 486] |
| ≤ 500 nM | CC(N)CCC(=O)N1N=C(c2cc(F)ccc2F)SC12CCOc1ccccc12 (stereo not drawn) [compound 490] |
| 500 to 1000 nM | O=C(CC1CNC1)N1N=C(c2cc(F)ccc2F)SC12CCOc1ccccc12 (stereo not drawn) [compound 491] |
| ≤ 500 nM | O=C(CCCN1CCCC1)N1N=C(c2cc(F)ccc2F)SC12CCOc1ccccc12 (stereo not drawn) [compound 492] |
| > 500 nM | O=C1CCCN1CCCC(=O)N1N=C(c2cc(F)ccc2F)SC12CCOc1ccccc12 (stereo not drawn) [compound 493] |
| ≤ 500 nM | O=C(CCCN1CCCCC1)N1N=C(c2cc(F)ccc2F)SC12CCOc1ccccc12 (stereo not drawn) [compound 494] |
| > 500 nM | O=C(CCCN1CCOCC1)N1N=C(c2cc(F)ccc2F)SC12CCOc1ccccc12 (stereo not drawn) [compound 495] |
| ≤ 500 nM | O=C(CC1CCNC1)N1N=C(c2cc(F)ccc2F)SC12CCOc1ccccc12 (stereo not drawn) [compound 496] |

More lines, now with the values behind:

| SMILES | EC50 |
| --- | --- |
| CN1CCC(C(=O)N2N=C(c3cc(F)ccc3F)SC23CCCc2ccsc23)CC1 (stereo not drawn) [compound 429] | > 1000 nM |
| O=C(c1ccccn1)N1N=C(c2cc(F)ccc2F)SC12CCOc1ccccc12 (stereo not drawn) [compound 432] | > 1000 nM |
| NCCC(=O)N1N=C(c2cc(F)ccc2F)SC12CCOc1ccccc12 (stereo not drawn) [compound 433] | 500 to 1000 nM |
| NCCCC(=O)N1N=C(c2cc(F)ccc2F)SC12CCOc1ccccc12 (stereo not drawn) [compound 434] | ≤ 500 nM |
| CO[C@@H](C)C(=O)N1N=C(c2cc(F)ccc2F)SC12CCOc1ccccc12 (stereo partly drawn) [compound 435] | 500 to 1000 nM |
| NC1CCC(C(=O)N2N=C(c3cc(F)ccc3F)SC23CCc2ccccc23)CC1 (stereo not drawn) [compound 439] | 500 to 1000 nM |
| NC1CCC(C(=O)N2N=C(c3cc(F)ccc3F)SC23CCc2ccccc23)C1 (stereo not drawn) [compound 440] | ≤ 500 nM |
| COC(C)C(=O)N1N=C(c2cc(F)ccc2F)SC12CCc1ccccc12 (stereo not drawn) [compound 441] | ≤ 500 nM |
| NCCC(=O)N1N=C(c2cc(F)ccc2F)SC12CCc1ccccc12 (stereo not drawn) [compound 442] | ≤ 500 nM |
| NC(=O)CCC(=O)N1N=C(c2cc(F)ccc2F)SC12CCc1ccccc12 (stereo not drawn) [compound 444] | ≤ 500 nM |
| O=C(CC1CCCNC1)N1N=C(c2cc(F)ccc2F)SC12CCc1ccccc12 (stereo not drawn) [compound 446] | 500 to 1000 nM |
| O=C(CCC1CCCNC1)N1N=C(c2cc(F)ccc2F)SC12CCc1ccccc12 (stereo not drawn) [compound 448] | > 1000 nM |
| O=C(Cc1ccncc1)N1N=C(c2cc(F)ccc2F)SC12CCc1ccccc12 (stereo not drawn) [compound 449] | ≤ 500 nM |
| O=C(CCCN1CCCC1)N1N=C(c2cc(F)ccc2F)SC12CCc1ccccc12 (stereo not drawn) [compound 454] | ≤ 500 nM |
| O=C1CCCN1CCCC(=O)N1N=C(c2cc(F)ccc2F)SC12CCc1ccccc12 (stereo not drawn) [compound 455] | 500 to 1000 nM |
| O=C(CCCN1CCCCC1)N1N=C(c2cc(F)ccc2F)SC12CCc1ccccc12 (stereo not drawn) [compound 456] | ≤ 500 nM |
| O=C(CCCN1CCOCC1)N1N=C(c2cc(F)ccc2F)SC12CCc1ccccc12 (stereo not drawn) [compound 457] | ≤ 500 nM |
| NCCCC(=O)N1N=C(c2cc(F)ccc2F)S[C@]12CCOc1ccccc12 [compound 458] | ≤ 500 nM |
| O=C(CC1CNC1)N1N=C(c2cc(F)ccc2F)SC12CCc1ccccc12 (stereo not drawn) [compound 460] | ≤ 500 nM |
| O=C(CCC1CCNCC1)N1N=C(c2cc(F)ccc2F)SC12CCc1ccccc12 (stereo not drawn) [compound 462] | ≤ 500 nM |
| CN(C)CCCC(=O)N1N=C(c2cc(F)ccc2F)SC12Cc1ccccc12 (stereo not drawn) [compound 463] | ≤ 500 nM |
| CCC(=O)N1N=C(c2cc(F)ccc2F)SC12CCOc1ccccc12 (stereo not drawn) [compound 465] | ≤ 500 nM |

| SMILES | EC50 |
| --- | --- |
| COCC(=O)N1N=C(c2cc(F)ccc2F)SC12CCOc1ccccc12 (stereo not drawn) [compound 466] | > 1000 nM |
| CC(C)C(=O)N1N=C(c2cc(F)ccc2F)SC12CCOc1ccccc12 (stereo not drawn) [compound 467] | > 1000 nM |
| O=C(C(F)F)N1N=C(c2cc(F)ccc2F)SC12CCOc1ccccc12 (stereo not drawn) [compound 471] | ≤ 500 nM |
| COCCOCC(=O)N1N=C(c2cc(F)ccc2F)SC12CCOc1ccccc12 (stereo not drawn) [compound 472] | > 1000 nM |
| O=C(c1ccncc1)N1N=C(c2cc(F)ccc2F)SC12CCOc1ccccc12 (stereo not drawn) [compound 474] | > 1000 nM |
| N[C@H]1CC[C@@H](C(=O)N2N=C(c3cc(F)ccc3F)SC23CCOc2ccccc23)C1 (stereo partly drawn) [compound 476] | > 500 nM |
| N[C@@H]1CC[C@H](C(=O)N2N=C(c3cc(F)ccc3F)SC23CCOc2ccccc23)C1 (stereo partly drawn) [compound 477] | > 500 nM |
| N[C@@H]1CC[C@@H](C(=O)N2N=C(c3cc(F)ccc3F)SC23CCOc2ccccc23)C1 (stereo partly drawn) [compound 478] | > 500 nM |
| N[C@H]1CCC[C@@H](C(=O)N2N=C(c3cc(F)ccc3F)SC23CCOc2ccccc23)C1 (stereo partly drawn) [compound 479] | > 500 nM |
| N[C@H]1CC[C@H](C(=O)N2N=C(c3cc(F)ccc3F)SC23CCOc2ccccc23)CC1 (stereo partly drawn) [compound 480] | > 500 nM |
| O=C(CCC1CCCNC1)N1N=C(c2cc(F)ccc2F)SC12CCOc1ccccc12 (stereo not drawn) [compound 482] | ≤ 500 nM |
| O=C(Cc1ccncc1)N1N=C(c2cc(F)ccc2F)SC12CCOc1ccccc12 (stereo not drawn) [compound 485] | ≤ 500 nM |
| NCCCCC(=O)N1N=C(c2cc(F)ccc2F)SC12CCOc1ccccc12 (stereo not drawn) [compound 487] | ≤ 500 nM |
| NC(=O)CCC(=O)N1N=C(c2cc(F)ccc2F)SC12CCOc1ccccc12 (stereo not drawn) [compound 488] | > 500 nM |
| CNCCCC(=O)N1N=C(c2cc(F)ccc2F)SC12CCOc1ccccc12 (stereo not drawn) [compound 489] | ≤ 500 nM |
| O=C(CCC1CCCCN1)N1N=C(c2cc(F)ccc2F)SC12CCOc1ccccc12 (stereo not drawn) [compound 497] | 500 to 1000 nM |
| O=C(CCC1CCNCC1)N1N=C(c2cc(F)ccc2F)SC12CCOc1ccccc12 (stereo not drawn) [compound 498] | ≤ 500 nM |
| N[C@H]1C[C@@H](C(=O)N2N=C(c3cc(F)ccc3F)SC23CCOc2ccccc23)C1 (stereo partly drawn) [compound 499] | 500 to 1000 nM |
| N[C@H]1C[C@H](C(=O)N2N=C(c3cc(F)ccc3F)SC23CCOc2ccccc23)C1 (stereo partly drawn) [compound 500] | > 500 nM |
| N[C@H]1C[C@@H](C(=O)N2N=C(c3cc(F)ccc3F)SC23CCc2ccccc23)C1 (stereo partly drawn) [compound 501] | ≤ 500 nM |
| N[C@H]1C[C@H](C(=O)N2N=C(c3cc(F)ccc3F)SC23CCc2ccccc23)C1 (stereo partly drawn) [compound 502] | ≤ 500 nM |

same assay, conditions: Table 401; HCT116 cells, 16 hours with drug; read-out: ED50 (nM) Range

| EC50 | SMILES |
| --- | --- |
| > 1000 nM | NC1CCC(C(=O)N2N=C(c3cc(F)ccc3F)SC23CCc2ccccc23)CC1 (stereo not drawn) [compound 445] |
